Data set [1] relates to Thrombin-antithrombin complexes. Briefly: thrombin-antithrombin complexes levels (TAT) in PTCA patients. The format is in vivo, human. The following applies: 2 hours after PS injection; fell from 21.9±18.7 before.
The next data set deals with prothrombin fragment 1+2. Briefly: prothrombin fragment 1+2 levels in PTCA patients. The following applies: 2 hours after PS injection; fell from 2.08±1.04 before. The format is in vivo, human.
Data set [2] relates to patients undergoing a transluminal angioplasty of the coronaries. In words: pilot clinical study in patients undergoing PTCA: thrombus formation at PTCA sites and TIMI flow in target vessel. The format is in vivo, human. The following applies: 71 patients. As for the experimental part: A single dose of 12 mg of PS via the intravenous route and 500 mg of aspirin, via the intravenous route, was administered to the patients.
To assess the antithrombotic activity 71 patients with stable angina (26), recent unstable angina (11) or recent myocardial infarction (34) with type A or B coronary lesions underwent PTCA with a single 12 mg PS i.v. bolus injection and 500 mg i.v. aspirin. Angiography was repeated 24 h after PTCA. The endpoints were thrombus formation at PTCA sites and the thrombolysis in myocardial infarction (TIMI) flow in target vessel. Heparin was not allowed before, during and within 24 h after PTCA.

Data set [3] can be described thus: activated clotting time (ACT) in PTCA patients. The format is in vivo, human. The following applies: after 12 mg PS i.v. and 500 mg i.v. aspirin.
[4] abbreviates: single 12 mg PS i.v. bolus and 500 mg i.v. aspirin, no heparin.

For the compound `CO[C@H]1OC(COS(=O)(=O)O)[C@@H](O[C@@H]2OC(C(=O)O)[C@H](O[C@@H]3OC(COS(=O)(=O)O)[C@@H](O[C@@H]4OC(C(=O)O)[C@@H](O[C@H]5OC(COS(=O)(=O)O)[C@@H](O)C(O)C5NS(=O)(=O)O)C(O)C4O)C(OS(=O)(=O)O)C3NS(=O)(=O)O)C(O)C2OS(=O)(=O)O)C(O)C1NS(=O)(=O)O` (stereo partly drawn) [PS, methyl O-(2-deoxy-2-sulphoamino-6-O-sulpho-α-D-gluco-pyranosyl)-(1→4)-O-(β-D-glucopyranosyluronic acid)-(1→4)-O-(2-deoxy-2-sulphoamino-3,6-di-O-sulpho-α-D-glucopyranosyl)-(1→4)-O-(2-O-sulpho-α-L-idopyranosyl-uronic acid)-(1→4)-2-deoxy-2-sulphoamino-6-O-sulpho-α-D-glucopyranoside], in the data set with factor Xa (10 min. after 12 mg PS i.v. bolus (with 500 mg i.v. aspirin)), the “Anti-Xa activity, peak” value is 1.20±0.29 U anti-Xa/ml. Moreover, the “Anti-Xa activity, maintained on average” value with factor Xa (2 hours after PS administration, 12 mg i.v. (with 500 mg i.v. aspirin)) is 0.87 ±0.14 U anti-Xa/ml. For the same compound, in data set [1], the “Thrombin-antithrombin complexes levels (TAT)” value turned out to be 4.8 ± 3.8 µg/L. Moreover, the “prothrombin fragment 1+2” value with prothrombin fragment 1+2 amounted to 1.54 ± 82 ng/mL. The major bleeding entry in data set [2] (12 mg PS i.v. and 500 mg i.v. aspirin) was “No major bleeding occurred”. In data set [2] (setting [4]), the “Acute thrombotic closure at dissected PTCA site” value was found to be 1 patient and the “distal embolization of a thrombus containing plaque” value is reported as 1 patient. The “TIMI 3 flow without thrombus at PTCA site” value in data set [2] (at 24 h after PTCA, 12 mg PS i.v. and 500 mg i.v. aspirin) worked out at 71 patients. The “activated clothing time ACT” value in data set [3] is listed as “remained unchanged”.
